Reference: patent US20250171432A1, “COMPOUNDS AND METHODS OF USE” (Tango Therapeutics, Inc., priority 2022, published 2025)

Tests used:
Format in all cases: cell-based
[1] = tested on: SDMA (PRMT5 activity) in HAP1 MTAP-intact cell line; assay: SDMA in-cell western assay, HAP1 MTAP-intact; details: Homo sapiens, SDMA in-cell western, HAP1 MTAP-intact cells, 24 hours compound incubation
[2] = tested on: SDMA (PRMT5 activity) in HAP1 MTAP-deleted cell line; assay: SDMA in-cell western assay, HAP1 MTAP-deleted; details: for IC50 / IC90: Homo sapiens, SDMA in-cell western, HAP1 MTAP-deleted cells, 24 hours compound incubation; for Hap1 MTAP intact/deleted ratio: ratio of SDMA IC50 in HAP1 MTAP-intact to HAP1 MTAP-deleted cell line
[3] = tested on: HAP1 MTAP-deleted cell line; assay: Viability assay (CellTiter-Glo), HAP1 MTAP-deleted; details: Homo sapiens, 168 h, HAP1 MTAP-deleted cells, 7 days
Summary of the method: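 HAP1 MTAP-deleted and MTAP-intact cells seeded, then dosed next day (n=3, 0.2% DMSO) and grown 7 days. Viability by CellTiter-Glo luminescence, expressed as % of DMSO control per cell line.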

| SMILES | IC50 ([1]; HAP1, 24 h) [nM] | IC50 [2] [nM] | IC90 [2] [nM] | Hap1 MTAP intact/deleted ratio [2] | IC50 [3] [nM] | IC50 [1] [nM] |
| --- | --- | --- | --- | --- | --- | --- |
| CCc1cc(NC(=O)C(=O)N2C[C@@H](C)CC[C@@H]2c2ccc3sc(C4CN(C)C(C)(C)C4)nc3c2)cnc1N (mixture of isomers) [Compound 13, N-(6-amino-5-ethylpyridin-3-yl)-2-((2R,5S)-5-methyl-2-(2-(1,5,5-trimethylpyrrolidin-3-yl)benzo[d]thiazol-5-yl)piperidin-1-yl)-2-oxoacetamide] | 5 to 50 | < 5 | < 75 | C (“C” indicates an IC50 ratio of less than 15 fold) | < 100 | – |
| COc1ncc(NC(=O)C(=O)N2C[C@@H](C)CC[C@@H]2c2ccc3sc(C4CN(C)C(C)(C)C4)nc3c2)cc1C(N)=O (mixture of isomers) [Compound 77, 2-methoxy-5-(2-((2R,5S)-5-methyl-2-(2-(1,5,5-trimethylpyrrolidin-3-yl)benzo[d]thiazol-5-yl)piperidin-1-yl)-2-oxoacetamido)nicotinamide] | > 50 | < 5 | < 75 | A (“A” indicates an IC50 ratio greater than or equal to 30 fold) | < 100 | – |
| COc1ncc(NC(=O)C(=O)N2C[C@@H](C)CC[C@@H]2c2ccc3sc(C4=C(C)CN(C)CC4)nc3c2)cc1C(N)=O [Compound 61, 5-(2-((2R,5S)-2-(2-(1,5-dimethyl-1,2,3,6-tetrahydropyridin-4-yl)benzo[d]thiazol-5-yl)-5-methylpiperidin-1-yl)-2-oxoacetamido)-2-methoxynicotinamide] | – | < 5 | < 75 | A (“A” indicates an IC50 ratio greater than or equal to 30 fold) | < 100 | > 50 |
| C[C@H]1CC[C@H](c2ccc3scnc3c2)N(C(=O)C(=O)Nc2cnc(N)c(I)c2)C1 [Compound 51, N-(6-amino-5-iodopyridin-3-yl)-2-((2R,5S)-2-(benzo[d]thiazol-5-yl)-5-methylpiperidin-1-yl)-2-oxoacetamide] | – | < 5 | 75 to 125 | A (“A” indicates an IC50 ratio greater than or equal to 30 fold) | 100 to 1000 | > 50 |
| CCc1cc(NC(=O)C(=O)N2C[C@@H](C)CC[C@@H]2c2ccc3sc([C@@H]4CCN(C)CC4(C)C)nc3c2)cnc1N [Compound 79, N-(6-amino-5-ethylpyridin-3-yl)-2-((5S)-5-methyl-2-(2-(1,3,3-trimethylpiperidin-4-yl)benzo[d]thiazol-5-yl)piperidin-1-yl)-2-oxoacetamide] | 5 to 50 | < 5 | < 75 | C (“C” indicates an IC50 ratio of less than 15 fold) | < 100 | – |
| COc1ncc(NC(=O)C(=O)N2C[C@@H](C)CC[C@@H]2c2ccc3sc([C@@H]4C[C@@H](C)CN(C)C4)nc3c2)cc1C(N)=O (racemic) [Compound 94, 5-(2-((2R,5S)-2-(2-(1,5-dimethylpiperidin-3-yl)benzo[d]thiazol-5-yl)-5-methylpiperidin-1-yl)-2-oxoacetamido)-2-methoxynicotinamide] | > 50 | < 5 | < 75 | A (“A” indicates an IC50 ratio greater than or equal to 30 fold) | < 100 | – |
| COc1ncc(NC(=O)C(=O)N2C[C@@H](C)CC[C@@H]2c2ccc3sc([C@@H]4CCN(C)CC4(C)C)nc3c2)cc1C(N)=O (single isomer, unassigned) [Compound 3] | > 50 | < 5 | < 75 | B (“B” indicates an IC50 ratio greater than or equal to 15 fold but lower than 30 fold) | < 100 | – |

More lines, main results first:

| IC50 ([1]; HAP1, 24 h) [nM] | IC50 [2] [nM] | IC90 [2] [nM] | SMILES | Hap1 MTAP intact/deleted ratio [2] | IC50 [3] [nM] | IC50 [1] [nM] |
| --- | --- | --- | --- | --- | --- | --- |
| > 50 | < 5 | < 75 | CCc1cc(NC(=O)C(=O)N2C[C@@H](C)CC[C@@H]2c2ccc3cn([C@H]4CCN(C)C[C@H]4C)nc3c2)cnc1N [Compound 42] | B (“B” indicates an IC50 ratio greater than or equal to 15 fold but lower than 30 fold) | < 100 | – |
| 5 to 50 | < 5 | < 75 | CCc1cc(NC(=O)C(=O)N2C[C@@H](C)CC[C@@H]2c2ccc3nn([C@H]4CCN(C)C(C)(C)C4)cc3c2)cnc1N [Compound 44] | B (“B” indicates an IC50 ratio greater than or equal to 15 fold but lower than 30 fold) | < 100 | – |
| > 50 | < 5 | < 75 | CCc1cc(NC(=O)C(=O)N2C[C@@H](C)CC[C@@H]2c2ccc3sc([C@H]4C[C@H](N(C)C)C4)nc3c2)cnc1N (single isomer, unassigned) [Compound 43] | A (“A” indicates an IC50 ratio greater than or equal to 30 fold) | < 100 | – |
| 5 to 50 | < 5 | < 75 | CCc1cc(NC(=O)C(=O)N2C[C@@H](C)CC[C@@H]2c2ccc3sc(C(C)CN4CCCC4)nc3c2)cnc1N (single isomer, unassigned) [Compound 2] | B (“B” indicates an IC50 ratio greater than or equal to 15 fold but lower than 30 fold) | < 100 | – |
| > 50 | < 5 | < 75 | COc1ncc(NC(=O)C(=O)N2C[C@@H](C)CC[C@@H]2c2ccc3sc([C@@H](C)CN4CCCC4)nc3c2)cc1C(N)=O [Compound 62, 2-methoxy-5-[[2-oxo-2-[(2R,5S)-5-methyl-2-[2-[(1S)-1-methyl-2-pyrrolidin-1-yl-ethyl]-1,3-benzothiazol-5-yl]-1-piperidyl]acetyl]amino]pyridine-3-carboxamide] | A (“A” indicates an IC50 ratio greater than or equal to 30 fold) | < 100 | – |
| 5 to 50 | < 5 | < 75 | COc1ncc(NC(=O)C(=O)N2C[C@@H](C)CC[C@@H]2c2ccc3sc([C@@H](C)CN(C)C)nc3c2)cc1C(N)=O [Compound 14, 2-methoxy-5-[[2-oxo-2-[(2R,5S)-5-methyl-2-[2-[(^1R)-2-(dimethylamino)-1-methyl-ethyl]-1,3-benzothiazol-5-yl]-1-piperidyl]acetyl]amino]pyridine-3-carboxamide] | B (“B” indicates an IC50 ratio greater than or equal to 15 fold but lower than 30 fold) | < 100 | – |
| 5 to 50 | < 5 | < 75 | CCc1cc(NC(=O)C(=O)N2C[C@@H](C)CC[C@@H]2c2ccc3sc([C@@H]4C[C@@H](C)CN(C)C4)nc3c2)cnc1N (racemic) [Compound 118, N-(6-amino-5-ethylpyridin-3-yl)-2-((2R,5S)-2-(2-(1,5-dimethylpiperidin-3-yl)benzo[d]thiazol-5-yl)-5-methylpiperidin-1-yl)-2-oxoacetamide] | C (“C” indicates an IC50 ratio of less than 15 fold) | < 100 | – |
| > 50 | < 5 | < 75 | COc1ncc(NC(=O)C(=O)N2C[C@@H](C)CC[C@@H]2c2ccc3sc(C[C@H]4CCN(C)C[C@@H]4C)nc3c2)cc1C(N)=O (racemic) [Compound 64, 5-(2-((2R,5S)-2-(2-((1,3-dimethylpiperidin-4-yl)methyl)benzo[d]thiazol-5-yl)-5-methylpiperidin-1-yl)-2-oxoacetamido)-2-methoxynicotinamide] | A (“A” indicates an IC50 ratio greater than or equal to 30 fold) | < 100 | – |
| > 50 | 5 to 50 | > 125 | CCc1cc(NC(=O)C(=O)N2C[C@@H](C)CC[C@@H]2c2ccc(F)c(OCCN(C)C)c2)cnc1N [Compound 128, N-(6-amino-5-ethylpyridin-3-yl)-2-((2R,5S)-2-(3-(2-(dimethylamino)ethoxy)-4-fluorophenyl)-5-methylpiperidin-1-yl)-2-oxoacetamide] | A (“A” indicates an IC50 ratio greater than or equal to 30 fold) | < 100 | – |
